≈ marks a conversion by molar mass, not a printed value. Structures can show the parent of a compound that is named as a salt.
Legend:
glucocorticoid receptor = molecular target: T1, glucocorticoid receptor (Homo sapiens, UniProt P04150); experiment: Glucocorticoid receptor trafficking and GRE reporter plasmid transactivation in T cells; format: cell-based; conditions: for potentiation of prednisolone's ability to transactivate a GRE reporter plasmid: T cells
T1 construct: endogenous in cells; host or cells: T cells
T1 sequence (P04150 1-777): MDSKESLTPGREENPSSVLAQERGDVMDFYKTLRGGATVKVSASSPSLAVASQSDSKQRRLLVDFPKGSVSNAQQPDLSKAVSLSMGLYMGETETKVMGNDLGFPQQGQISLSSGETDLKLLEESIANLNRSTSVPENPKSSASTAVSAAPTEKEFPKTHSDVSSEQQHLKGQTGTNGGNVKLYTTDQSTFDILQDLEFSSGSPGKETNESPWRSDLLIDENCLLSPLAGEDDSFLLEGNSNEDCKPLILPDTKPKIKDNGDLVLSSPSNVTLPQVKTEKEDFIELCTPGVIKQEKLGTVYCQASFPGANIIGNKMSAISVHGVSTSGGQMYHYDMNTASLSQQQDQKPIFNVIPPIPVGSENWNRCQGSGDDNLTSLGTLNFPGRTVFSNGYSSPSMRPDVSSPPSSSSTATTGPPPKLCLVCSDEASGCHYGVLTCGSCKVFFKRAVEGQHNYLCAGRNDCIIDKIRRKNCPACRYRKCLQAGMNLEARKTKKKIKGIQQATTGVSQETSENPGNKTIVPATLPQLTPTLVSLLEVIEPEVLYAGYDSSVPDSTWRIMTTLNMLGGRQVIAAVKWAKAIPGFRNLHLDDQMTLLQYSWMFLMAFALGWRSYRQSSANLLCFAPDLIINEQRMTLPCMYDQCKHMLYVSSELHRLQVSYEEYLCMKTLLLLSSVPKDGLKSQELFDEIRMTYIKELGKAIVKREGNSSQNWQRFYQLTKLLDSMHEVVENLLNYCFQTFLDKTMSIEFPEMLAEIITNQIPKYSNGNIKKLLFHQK

NFAT = NFAT activation, translocation and transactivation; format: cell-based
NFkB and AP1 = NFkB and AP1 activation; format: cell-based
p38, JNK, ERK = experiment: p38, JNK and ERK activation; format: cell-based
E. coli UB1005 C498 = experiment: MIC by microtitre broth dilution; format: cell-based; conditions: for Minimum inhibitory concentration: Gram−, wt, Mueller Hinton broth, 37° C, 24h
Method: (§1) MIC assays were conducted essentially as described by Amsterdam, D. 1996, “Susceptibility testing of antimicrobials in liquid media”, p. 52-111, in Loman, V., ed. Antibiotics in laboratory medicine, 4th ed. Williams and Wilkins, Baltimore, Md.

[1] = tested on: K. pneumoniae ATCC13883 C238; experiment: MIC by microtitre broth dilution; format: cell-based; conditions: Gram−, wt; Mueller Hinton broth, 37° C, 24h
Method: as §1

[2] = tested on: P. aeruginosa PAE/K799 H187; experiment: MIC by microtitre broth dilution; format: cell-based; conditions: Gram−, wt; Mueller Hinton broth, 37° C, 24h
Method: as §1

S. aureus ATCC25923 C622 = experiment: MIC by microtitre broth dilution; format: cell-based; conditions: Gram+, wt; Mueller Hinton broth, 37° C, 24h
Method: as §1

S. epidermidis C621 = experiment: MIC by microtitre broth dilution; format: cell-based; conditions: Gram+, wt; Mueller Hinton broth, 37° C, 24h
Method: as §1

S. pyogenes C721 = experiment: MIC by microtitre broth dilution; format: cell-based; conditions: Gram+, wt; Todd Hewitt broth, 37° C, 24h
Method: as §1

[3] = tested on: LPS-induced TNF-α production; experiment: Acute in vivo model of inflammation (LPS-induced TNF-α release); conditions: component alone (prednisolone at reduced dose)
joint swelling = experiment: Chronic in vivo arthritis model (adjuvant model), joint swelling; conditions: component alone (prednisolone at reduced dose)
[4] = tested on: carrageenan-induced paw edema; experiment: Rat carrageenan-induced paw edema model, paw volume; format: in vivo; conditions: Amoxapine 2.26 mg/kg, foot pad, T-1 hr; Tmax = 6 hrs; listed as amoxapine (Amox)
Method: A dose-range finding study was performed to determine the anti-inflammatory activity of various ratios of methyl prednisolone acetate and amoxapine in a rat carrageenan-induced paw edema model. […] The molar ratio of methyl prednisolone acetate to amoxapine ranged from 1:1 to 1:300, using total doses of methyl prednisolone acetate of 0.01, 0.03 or 0.1 mg/kg.
The test agent (a combination of methyl prednisolone acetate and amoxapine), vehicle control, or reference agents (methyl prednisolone acetate, amoxapine, or Depo-Medrol®) were administered in the left hind foot pad of rats. After 60 minutes, paw edema was induced by injection of 100 μl of 1% carrageenan in the same foot pad. The paw volume was measured with a water displacement plethysmometer immediately prior to test agent injection (T−1h), at the time of carrageenan injection (T0h), and at T6h. Animals were euthanized by carbon dioxide inhalation. Paw tissue samples were collected and flash frozen in liquid nitrogen. Samples were assayed for TNF-α by enzyme-linked immunoassay (ELISA).

[5] = tested on: multiple species of bacteria and fungi; conditions: surface drug concentration is to be in excess of this value; cited from earlier work
[6] = Increase of the potency of an immunosuppressive agent
[7] = tested on: mast cells and eosinophil activation
[8] = 200 mg/day orally; cited from earlier work
[9] = cited from earlier work; for solubility in alcohol/ethanol: alcohol or ethanol

With Fc1ccc(C2CCNCC2COc2ccc3c(c2)OCO3)cc1 (single isomer, unassigned; (-)) [paroxetine, (−)-trans-4 R-(4′-fluorophenyl)-3 S-[(3′,4′-methylenedioxyphenoxy)methyl]piperidine hydrochloride hemihydrate] the “promotion of glucocorticoid receptor trafficking” value (glucocorticoid receptor) was “does not promote”, the “potentiation of prednisolone's ability to transactivate a GRE reporter plasmid” value (glucocorticoid receptor) was “does not promote glucocorticoid receptor trafficking or potentiate” and the “NFAT activation, translocation and transactivation” value (NFAT) was “represses”. The “NFkB and AP1 activation” value (NFkB and AP1) was “inhibits”, the ERK activation (p38, JNK, ERK) was “but not ERK activation” and the “p38 and JNK activation” value (p38, JNK, ERK) was “inhibition”.

With Sc1ncnc2nc[nH]c12 [6-mercaptopurine] the Minimum inhibitory concentration (E. coli UB1005 C498) was “N”.

For CN(Cc1cnc2nc(N)nc(N)c2n1)c1ccc(C(=O)N[C@@H](CCC(=O)O)C(=O)O)cc1 [methotrexate], the Minimum inhibitory concentration (E. coli UB1005 C498) was “N”, the Minimum inhibitory concentration [1] was 10^−6 Molar and the Minimum inhibitory concentration [2] was “N”. For the same compound, the Minimum inhibitory concentration (S. aureus ATCC25923 C622) was 10^−5 Molar, the Minimum inhibitory concentration (S. epidermidis C621) was “N” and the Minimum inhibitory concentration (S. pyogenes C721) was 10^−6 Molar.

For COc1cc([C@@H]2c3cc4c(cc3[C@@H](O[C@@H]3O[C@@H]5CO[C@@H](C)O[C@H]5[C@H](O)[C@H]3O)[C@H]3COC(=O)[C@H]23)OCO4)cc(OC)c1O [etoposide], the Minimum inhibitory concentration (E. coli UB1005 C498) was “N”.

With Clc1ccc2c(c1)C(N1CCNCC1)=Nc1ccccc1O2 [amoxapine] the “promotion of glucocorticoid receptor trafficking” value (glucocorticoid receptor) was “does not promote”, the “potentiation of prednisolone's ability to transactivate a GRE reporter plasmid” value (glucocorticoid receptor) was “does not potentiate” and the “NFAT activation, translocation and transactivation” value (NFAT) was “block”. The “NFkB and AP1 activation” value (NFkB and AP1) was “partially inhibits”, the ERK activation (p38, JNK, ERK) was “unaffected” and the “p38 and JNK activation” value (p38, JNK, ERK) was “Inhibition”. For the same compound, the “effect of the individual component alone” value [3] was “modest or no benefit”, the “effect of the individual component alone” value (joint swelling) was “modest or no benefit” and the “Edema ± SEM” value [4] was “not significantly different from the vehicle treatment”.

In the case of Nc1ncnc2c1ccn2[C@@H]1O[C@H](CO)[C@@H](O)[C@H]1O [tubercidin], the Minimum inhibitory concentration (E. coli UB1005 C498) is reported as “N”, the Minimum inhibitory concentration [1] is reported as “N” and the Minimum inhibitory concentration [2] is reported as “N”. The Minimum inhibitory concentration (S. aureus ATCC25923 C622) was “N”, the Minimum inhibitory concentration (S. epidermidis C621) was “N” and the Minimum inhibitory concentration (S. pyogenes C721) was “N”.

For N.N.[Cl][Pt][Cl] [cisplatin], the Minimum inhibitory concentration (E. coli UB1005 C498) was “N”, the Minimum inhibitory concentration [1] was “N” and the Minimum inhibitory concentration [2] was 10^−4 Molar. For the same compound, the Minimum inhibitory concentration (S. aureus ATCC25923 C622) was “N”, the Minimum inhibitory concentration (S. epidermidis C621) was “N” and the Minimum inhibitory concentration (S. pyogenes C721) was “N”.

In the case of CC[C@@]1(O)C(=O)OCc2c1cc1n(c2=O)Cc2cc3ccccc3nc2-1 [camptothecin], the Minimum inhibitory concentration (E. coli UB1005 C498) is reported as “N”, the Minimum inhibitory concentration [1] is reported as “N” and the Minimum inhibitory concentration [2] is reported as “N”. The Minimum inhibitory concentration (S. aureus ATCC25923 C622) was “N” and the Minimum inhibitory concentration (S. pyogenes C721) was “N”.

For O=c1[nH]cc(F)c(=O)[nH]1 [5-fluorouracil, 5-Fluorouracil], the MIC (E. coli UB1005 C498; Escherichia coli, UB1005C498, 24 h, read-out: Minimum inhibitory concentration) is listed as 1 µM (≈ 0.13 µg/mL) and the “concentration known to be lethal to multiple species of bacteria and fungi” value (shortened to “concentration known to be lethal”) [5] is listed as > 10^−4 M.

With CCN(CC)C(C)CN1c2ccccc2Sc2ccccc21 (stereo not drawn) [Ethopropazine, ethopropazine] the “potency of an immunosuppressive agent” value [6] was “increases the potency”.

With Oc1cc(Cl)ccc1Oc1ccc(Cl)cc1Cl [triclosan] the “potency of an immunosuppressive agent” value [6] was “increases the potency”.

In the case of COc1cccc2c1C(=O)c1c(O)c3c(c(O)c1C2=O)C[C@@](O)(C(=O)CO)C[C@@H]3O[C@H]1C[C@H](N)[C@H](O)[C@H](C)O1 [doxorubicin, Doxorubicin], the Minimum inhibitory concentration (E. coli UB1005 C498) is reported as 10^−4 Molar, the Minimum inhibitory concentration [1] is reported as 10^−6 Molar and the Minimum inhibitory concentration [2] is reported as 10^−5 Molar. The Minimum inhibitory concentration (S. aureus ATCC25923 C622) was 10^−5 Molar, the Minimum inhibitory concentration (S. epidermidis C621) was 10^−6 Molar and the Minimum inhibitory concentration (S. pyogenes C721) was 10^−7 Molar. For the same compound, the “concentration known to be lethal” value [5] was > 10^−4 M.

In the case of Nc1ccn([C@@H]2O[C@H](CO)[C@@H](O)[C@@H]2O)c(=O)n1 [Cytarabine, cytarabine], the Minimum inhibitory concentration (E. coli UB1005 C498) is reported as “N”.

For O=C1c2c(O)ccc(O)c2C(=O)c2c(NCCNCCO)ccc(NCCNCCO)c21 [mitoxantrone], the Minimum inhibitory concentration (E. coli UB1005 C498) is listed as 10^−5 Molar and the “concentration known to be lethal” value [5] is listed as > 10^−5 M.

With CCOC(=O)N1CCC(=C2c3ccc(Cl)cc3CCc3cccnc32)CC1 [loratadine] the “mast cells and eosinophil activation” value [7] was “inhibits”.

For CNCCCC12CCC(c3ccccc31)c1ccccc12 [maprotiline], the “potency of an immunosuppressive agent” value [6] was “increases the potency”.

With NC(=O)NO [hydroxyurea] the Minimum inhibitory concentration (E. coli UB1005 C498) was “N”, the Minimum inhibitory concentration [1] was “N” and the Minimum inhibitory concentration [2] was 10^−4 Molar. For the same compound, the Minimum inhibitory concentration (S. aureus ATCC25923 C622) was “N”, the Minimum inhibitory concentration (S. epidermidis C621) was “N” and the Minimum inhibitory concentration (S. pyogenes C721) was 10^−4 Molar.

For CC(=O)N1CCN(c2ccc(OCC3COC(Cn4ccnc4)(c4ccc(Cl)cc4Cl)O3)cc2)CC1 (stereo not drawn) [ketoconazole], the serum concentration [8] is listed as “about 3.2 micrograms” and the “solubility in water” value [9] is listed as “essentially insoluble in water”.

For Sc1ncc2[nH]cnc2n1 [2-mercaptopurine], the Minimum inhibitory concentration (E. coli UB1005 C498) was “N”.

In the case of CN(C)C(=O)C(CCN1CCC(O)(c2ccc(Cl)cc2)CC1)(c1ccccc1)c1ccccc1 [Loperamide], the “potency of an immunosuppressive agent” value [6] is reported as “increase the potency”.

In the case of NC(=O)c1ncn([C@@H]2O[C@H](CO)[C@@H](O)[C@H]2O)n1 [Ribavirin, ribavirin], the “solubility in alcohol/ethanol” value [9] is given as “only slightly soluble in alcohol”.

In the case of Nc1ccc(/N=N/c2ccccc2)c(N)n1 [Phenazopyridine base, phenazopyridine], the “solubility in alcohol/ethanol” value [9] is given as “slightly soluble in water and alcohol” and the “solubility in water” value [9] is given as “slightly soluble in water and alcohol”.
